Assay results from US20170119020A1, “METHOD OF FEEDING AN ANIMAL” (CARGILL, INCORPORATED, priority 2014, published 2017).

How the values were obtained:
sows and piglets = assay: Superoxide dismutase (SOD) activity in serum of sows and piglets (Example 10); type: in vivo, pig; settings: for Activity of superoxide dismutase (SOD) in serum of piglets: piglets at 21 days
Text: The performance following criteria were monitored during the trial: (i) Sows response criteria (actual parity, farrowing rate, culled sows—number and reasons, wean-to-mating interval, farrowing rate in the next cycle); (ii) litter response criteria (number of piglets, total, alive, stillborn, mummies; weight of piglets and litters; survival). The following biochemical (blood) criteria were monitored during the trial for the sows (mating, farrowing and weaning), piglets 21st day: (i) glutathione peroxidase (GPx) activity; (ii) superoxide dismutase (SOD) activity; (iii) total antioxidant status (TAS); (iv) vitamin E content; (v) vitamin A content.
To determine the oxidative status, the blood samples were collected from sows and piglets into tubes with lithium anticoagulant—received whole blood for analysis. At the same time blood samples were taken for blood clot. They were centrifuged (1500 rpm, 15 Temp. 4° C.) and obtained serum was pipetted into separate tubes.
In studies of oxidative status of sows and piglets were used suitable to each of the indicators, the reagent kits from Sigma-Aldrich. Determination was made in accordance with the descriptions of the rules and procedures specified by the manufacturer.
The content of the TAS (total antioxidant status) were determined using the Antioxidant assay kit (Cat. No CS0790), the activity of SOD (superoxide dismutase) was determined using SOD determination kit 19160, the activity of GPx (glutathione Peroxide assai Cellular Activity Kit) Cat. No CGP1. The content of vitamins A and E by McMurray and Blanchflower 1979 (Journal of Chromatography 178, 525-531.). TAS
Serum samples (20 ul) in duplicate were incubated at 37° C. for 20 minutes with the working solution WST (tetrazolium sodium salt, 2-(4-lodophenyl)-3 (4-nitrophenyl0-5-(2,4-disulfophenyl) 2H-tetrazolium, monosodium salt) (200 pl) and the enzyme working solution (20 pl). Simultaneously sample blanks were performed (two reagents, and blank for each sample) and a calibration curve based on serial dilutions of SOD in a range of 200 to 0,001 U/ml. Absorbance of the blank, standards and test samples read on a spectrophotometer at a wavelength of 450 nm. WST produces a water-soluble formazan dye upon reduction with a superoxide anion. The rate of the reduction with O2 are linearly related to the xanthine oxidase (XO) activity. The SOD activity is measured as the degree of blocking the formation of the formazan dye.

[1] = system: eggs and hatched chickens of Cobb broiler breeders; assay: Hatchability, fertility and chick quality of eggs of Example 1 (Example 2); type: in vivo, chicken
Procedure: The eggs were stored based on breeder pen and storage day. Eggs were allocated to twelve trays and nine blocks, with each block representing a storage day. At E17, all eggs were candled and at E18, eggs were transferred from the incubator […] to […] baskets. […] (64.4° F.) and a relative humidity of 75%. At the start of the incubation period, the eggs were weighed and allocated into blocks, each block representing a storage day. Each block consisted of twelve experimental units, with each experimental unit indicating a group of ten eggs. Only intact eggs were included; cracked, dirty, or eggs with deformed shells were excluded from the experiment. The eggs were placed in a NatureForm NMC 2340 Incubator with automatic control of temperature and relative humidity. From E0 until E18, the eggs were placed in setter trolleys, which consist of two shelves with a capacity for thirteen trays each. Each tray has three flats of thirty eggs. During this period, the incubator start temperature was set to 37.5° C. and relative humidity to 54%. […] After the setter period (E0-E18), eggs were transferred to baskets in the […] based on the blocking structure in the setter. The eggs were placed into subdivisions of a hatching crate, per replicate, and following tray order per block. Each […] trolley has twelve baskets with a capacity for 180 eggs each. […] Egg weights were recorded per experimental unit at E0. At hatch (E21) the number of dead chickens, dead embryos and […] (internal and external) were recorded. Remaining non-hatched eggs were opened to determine age and cause of death. The number of hatched chickens was recorded per replicate, as well as average chick weight. Sex was determined by cloaca sexing, performed by a professional chicken-sexer. Hatchability was calculated as percentage of total and of fertile eggs (eggs which contained living embryos after E17). […] Only chickens with an average body weight, completely dry, showing active movement and with a good navel score were selected. […] Sample chickens were individually weighed and killed by cervical dislocation to measure remaining yolk-sac weights, yolk-free body mass (“YFBM”), chick length, and shank length of both shanks. Relative asymmetry was calculated according to the following formula: RA=(|L-R|/[(L+R)/2])×100.

[2] = system: Cobb500 fast-feathering male broilers; assay: Grow out of offspring, performance till slaughter age (Example 3); type: in vivo, chicken
[3] = eggs of 28-29 week breeders of Example 1

## Cc1c(C)c2c(c(C)c1O)CCC(C)(CCCC(C)CCCC(C)CCCC(C)C)O2 (racemic) [Vitamin E, DL-α-tocopherol]
Sows and piglets; Breeding, Group 2: vitamin E 50/75 mg/kg diet
  Activity of superoxide dismutase (SOD) in serum of sows: 71.43 U/ml
Sows and piglets; Breeding, Group 3: vitamin E 100/150 mg/kg diet
  Activity of superoxide dismutase (SOD) in serum of sows: 73.28 U/ml
Sows and piglets; Farrowing, Group 2: vitamin E 50/75 mg/kg diet
  Activity of superoxide dismutase (SOD) in serum of sows: 77.14^B U/ml
Sows and piglets; Farrowing, Group 3: vitamin E 100/150 mg/kg diet
  Activity of superoxide dismutase (SOD) in serum of sows: 79.60^AB U/ml
Sows and piglets; Weaning, Group 2: vitamin E 50/75 mg/kg diet
  Activity of superoxide dismutase (SOD) in serum of sows: 79.50^C U/ml
Sows and piglets; Weaning, Group 3: vitamin E 100/150 mg/kg diet
  Activity of superoxide dismutase (SOD) in serum of sows: 90.93^B U/ml
Sows and piglets; Group 2: vitamin E 50/75 mg/kg sow diet
  Activity of superoxide dismutase (SOD) in serum of piglets: 100.61^B U/ml
Sows and piglets; Group 3: vitamin E 100/150 mg/kg sow diet
  Activity of superoxide dismutase (SOD) in serum of piglets: 129.54^Ab U/ml
[1]; at hatch
  Chick Weight: 42.4 g
[1]; dissected chickens
  Chick Weight: 41.3 g
  Chick length: 17.9 cm
  Relative Assymetrie (shank): 1.59
  YFBM (yolk free body mass): 36.2 g
  Yolk weight: 4.92 g
[1]; dissected chickens, expressed as percentage of average egg weight
  Relative Chick Weight^1: 70.7%
[1]; dissected chickens, expressed as percentage of chick weight
  Relative Chick Weight^2: 11.8%
[1]; [3]
  Fertility: 92.6%
  Hatchability of fertile: 95.6%
  Hatchability of total: 88.6%
[1]; expressed as percentage of average egg weight
  Relative chick weight: 72.5%
[2]; after placement in cages, day 0
  start weight of the chickens: 40.9 g
[2]; corrected to 2,181 gram body weight at 35 days of age
  F:G corrected for BW: 1.627
[2]; offspring
  ADFI 0-3 d: 10.1 g
  ADFI 0-14 d: 37.1 g
  ADFI 0-28 d: 82.1 g
  ADFI 0-35 d: 101.7 g
  ADFI 3-14 d: 44.5 g
  ADFI 14-35: 144.8 g
  ADFI 14-28 d: 127.0 g
  ADFI 28-35 d: 180.3 g
  ADG 0-3 d: 9.5 g
  ADG 0-14 d: 29.3 g
  ADG 0-28 d: 54.4 g
  ADG 0-35 d: 62.2 g
  ADG 3-14 d: 34.7 g
  ADG 14-35: 84.2 g
  ADG 14-28 d: 79.6 g
  ADG 28-35 d: 93.6 g
  BW 0 d: 40.9 g
  BW 3 d: 69.4 g
  BW 14 d: 451 g
  BW 35 d: 2219 g
  F:G 0-14 d: 1.268
  F:G 0-28 d: 1.509
  F:G 0-35 d: 1.635
  F:G 3-14 d: 1.283
  F:G 14-28 d: 1.598
  F:G 14-35 d: 1.720
  F:G 28-35 d: 1.929
[2]; offspring, 35 d
  EPI excl: 388
  EPI, excl mortality: 369
[2]; offspring, breeder diet 80 ppm vitamin E or 40 ppm vitamin E+40 ppm PROVIOX 50
  Mortality: 4.6%
[2]; offspring, kg feed intake:kg gain
  F:G 0-3 d: 1.088
